Results published in patent US20110230407A1, “HEPATOCYTE GROWTH FACTOR PATHWAY ACTIVATORS IN DEMYELINATING DISEASES AND CENTRAL NERVOUS SYSTEM TRAUMA” (priority 2005, published 2011).

Assays:
Type in all cases: cell-based
Schwann cells [1] = assay: H2O2-induced apoptosis of Schwann cells (Apo-ONE Assay kit); conditions: 0.5 mM H2O2 for 2 hours; HGF 50 ng/ml, mimetic 10 micromolar; FIG. 1
Protocol: HGF and small molecule HGF/SF mimetic protect Schwann cells against H2O2-induced apoptosis. Schwann cells were seeded in 96 well plates at a density of 5000 cells/well, overnight in serum-free media. Cells were treated with 0.5 mM H2O2 for 2 hours in the presence of vehicle (Veh), HGF (50 ng/ml) or HGF/SF mimetic (10 micromolar). Cells were assayed for apoptosis using the Apo-ONE Assay kit (Promega).

Schwann cells [2] = assay: Myelin production by fluoromyelin staining, Schwann cells; conditions: 4 hours
Protocol: HGF/SF and small molecule HGF/SF mimetic increase myelin production in Schwann cells. It is well-known that the primary function of oligodendrocytes and Schwann cells is myelin production. […] Cells were seeded in 3 well chamber slides at a density of 50,000 cells/well in serum free media for 24 hours. Then HGF/SF (50 ng/ml) or a small molecule HGF/SF mimetic (5 μM) were added to the same medium and cells incubated for an additional 4 hours. Cells were washed, and fluoromyelin (Molecular Probes) was added to each well (30 min exposure at room temperature), and cells observed under a confocal microscope (Olympus). […] To obtain semi-quantitative measurements of this increase in the fluoromyelin signal, a second experiment was performed. Schwann cells were seeded in 6 well plates at a density of 4×10^5 cells/well and treated with HGF (50 ng/ml) or mimetic (5 uM) for 4 hours. Fluoromyelin staining was performed as described above and relative fluorescence was measured using a fluorescence plate reader.

oligodendrocytes = assay: Myelin production by fluoromyelin staining, oligodendrocytes; conditions: HGF/SF 50 ng/ml, mimetic 5 μM, 4 hours
rat RSC96 Schwann cells = assay: Schwann cell proliferation, [3H]-thymidine incorporation; conditions: treated 16-24 hours, serum-free; FIGS. 3A and 3B
Description: (§1) Small molecule HGF/SF agonist mimics HGF/SF's pro-proliferative effects. Oligodendrocytes and Schwann cells are both cells that support neuronal function by ensheathing neuronal axons with myelin. An individual supporting cell comprises a single segment of an axon's myelin sheath and is active in facilitating axonal growth. An important aspect of HGF/SF activity is this growth factor's ability to induce oligodendrocyte and Schwann cell proliferation. In order to evaluate small molecule HGF/SF mimetics for potential HGF/SF-like bioactivity, rat RSC96 Schwann cells (ATCC, Manassas, Va.) or mouse primary oligodendrocytes (Celprogen, San Pedro, Calif.) were seeded in 96-well plates at 5000 cells/well in serum-free medium for 16 hours. Cells were treated with test compound or HGF/SF (positive control) for 16-24 hours. [^3H]-thymidine was added to the medium with Schwann cells, WST1 cell proliferation reagent (Roche, Indianapolis, Ind.) was added to oligodendrocytes, and incubation was continued for another 4-5 hours. Schwann cells were washed with PBS and harvested. [^3H]-thymidine incorporation was determined and used as a measure of proliferation (increased DNA synthesis). Cells with WST1 reagent were read using a plate reader at an OD of 490 nm.

[3] = test system: mouse primary oligodendrocytes; assay: Oligodendrocyte proliferation, WST1 reagent; conditions: treated 16-24 hours, serum-free; FIGS. 3C and 3D
Description: as §1

[4] = test system: fibroblasts lacking the Met receptor; assay: Mitogenesis in fibroblasts lacking the Met receptor
Protocol: To determine whether mimetic-mediated Met phosphorylation induces similar intracellular signaling cascades as HGF/SF, and to assess whether these signaling events convey biologic activity, experiments were carried out using an Akt inhibitor and the phosphoinositide3-kinase inhibitor Wortmannin.

smooth muscle cells = assay: Mitogenesis in smooth muscle cells lacking the Met receptor
Human neurons = assay: Neuronal axon growth and cell density in human neurons; conditions: 48 hours, FIG. 5
Protocol: In this experiment, the ability of HGF/SF and mimetic to activate axonal growth was assessed. Human neurons (ATCC) were seeded in 6-well plates (1000 cell/well) in media containing 1% FBS. Cells were treated with HGF/SF (50 ng/ml) or mimetic (5 micromolar) for 48 hours. […] Cell shape, size, and density are clearly different in the presence of HGF/SF and mimetic compared with control. […] In one experiment, neurons were incubated with conditioned media from Schwann cells (FIG. 5, right field). […] Thus, secreted growth factors present in Schwann cell media are ineffective (or are at least effects are below the level of detection) as cell mitogens.

NGF, BDNF, and NT-4 = assay: Expression of neurotrophic growth factors in Schwann cells, Western blot; conditions: Schwann cell protein extracts; FIG. 6
Description: HGF/SF- and HGF/SF mimetic-activated Schwann cells show increased expression of neurotrophic growth factors.

Schwann cells [5] = assay: Schwann cell migration, Migration Chamber; conditions: 22 hours, quantified with Calcein; FIG. 7
Protocol: HGF/SF mimetic recapitulates HGF/SF activity in Schwann cells. To compare the direct effects of HGF/SF mimetic and HGF/SF on cell migration, an in vitro migration assay was employed using a Migration Chamber (BD Biosciences). 50,000 cells were seeded in the inner chamber for 22 hours in the presence of 0.4% or 10% FBS, HGF/SF, or mimetic. Cell number was quantified with […] Calcein using a fluorescence plate reader.

HGF/SF: Scatter factor / hepatocyte growth factor, pleiotropic growth factor, heparin binding heterodimeric protein signalling through Met
cell viability after H2O2 (Schwann cells [1]): substantial improvement in cell viability
increase in the fluoromyelin signal, relative fluorescence by plate reader (Schwann cells [2]; HGF 50 ng/ml, mimetic 5 uM, FIG. 2B): 3 fold
fluoromyelin signal, confocal microscope (Schwann cells [2]; HGF/SF 50 ng/ml, mimetic 5 μM, FIG. 2A): intense increase
myelin production in oligodendrocytes (oligodendrocytes): induce myelin production
Schwann cell proliferation ([3H]-thymidine incorporation) (rat RSC96 Schwann cells): activate
oligodendrocyte proliferation (WST1, OD 490 nm) [3]: activate
mitogenesis in fibroblasts lacking the Met receptor [4]: neither the mimetic nor HGF/SF activated mitogenesis
mitogenesis in smooth muscle cells, which also lack the Met receptor (smooth muscle cells): A similar result was obtained
neuronal cell proliferation / cell density (Human neurons): activate neuronal cell proliferation
neuronal axon growth (Human neurons; HGF/SF 50 ng/ml, mimetic 5 micromolar, 1% FBS): activate neuronal axon growth
expression of NGF, BDNF, and NT-4 cytokines (NGF, BDNF, and NT-4): over-express
Schwann cell migration (Schwann cells [5]): similarly increase Schwann cell migration
